Data taken from US9040533B2, “Oxime-substituted-quinoxaline-type piperidine compounds as ORL-1 modulators” (priority 2012, dated 2015).

Columns and labels:
Assay in all cases: biochemical
CYP2D6 = CYP2D6 (Homo sapiens, UniProt P10635)
CYP1A2 = molecular target: T1, CYP1A2 (Homo sapiens, UniProt P05177)
T1 sequence (P05177 1-516): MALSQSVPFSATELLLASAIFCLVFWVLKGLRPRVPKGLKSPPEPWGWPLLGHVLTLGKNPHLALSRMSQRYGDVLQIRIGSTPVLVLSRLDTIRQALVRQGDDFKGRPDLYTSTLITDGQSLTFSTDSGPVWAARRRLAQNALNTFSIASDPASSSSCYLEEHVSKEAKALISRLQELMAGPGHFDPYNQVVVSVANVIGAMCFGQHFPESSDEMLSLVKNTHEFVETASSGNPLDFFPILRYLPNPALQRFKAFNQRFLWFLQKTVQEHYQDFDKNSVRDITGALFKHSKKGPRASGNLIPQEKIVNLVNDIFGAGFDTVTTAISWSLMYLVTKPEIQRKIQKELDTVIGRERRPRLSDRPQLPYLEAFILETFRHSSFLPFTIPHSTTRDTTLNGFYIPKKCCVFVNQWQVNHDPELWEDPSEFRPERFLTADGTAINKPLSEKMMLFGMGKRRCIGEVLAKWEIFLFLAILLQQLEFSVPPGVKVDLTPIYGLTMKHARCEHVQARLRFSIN

CYP3A4 = CYP3A4 (Homo sapiens, UniProt P08684)
CYP3A4, sequence (P08684 whole entry): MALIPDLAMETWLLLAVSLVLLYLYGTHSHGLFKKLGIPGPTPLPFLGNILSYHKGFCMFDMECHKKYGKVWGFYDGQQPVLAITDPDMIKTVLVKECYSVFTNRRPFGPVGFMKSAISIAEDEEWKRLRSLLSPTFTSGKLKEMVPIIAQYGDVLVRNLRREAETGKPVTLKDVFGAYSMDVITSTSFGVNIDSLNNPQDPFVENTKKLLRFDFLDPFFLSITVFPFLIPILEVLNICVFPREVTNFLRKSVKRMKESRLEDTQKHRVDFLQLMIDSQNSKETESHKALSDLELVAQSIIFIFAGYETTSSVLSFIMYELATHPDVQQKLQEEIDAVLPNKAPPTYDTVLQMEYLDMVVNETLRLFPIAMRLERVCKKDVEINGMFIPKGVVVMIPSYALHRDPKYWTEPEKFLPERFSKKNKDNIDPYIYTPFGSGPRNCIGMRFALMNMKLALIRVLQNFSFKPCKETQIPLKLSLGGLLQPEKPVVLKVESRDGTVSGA

CYP2C9 = CYP2C9 (Homo sapiens, UniProt P11712)
CYP2C9, sequence (P11712 whole entry): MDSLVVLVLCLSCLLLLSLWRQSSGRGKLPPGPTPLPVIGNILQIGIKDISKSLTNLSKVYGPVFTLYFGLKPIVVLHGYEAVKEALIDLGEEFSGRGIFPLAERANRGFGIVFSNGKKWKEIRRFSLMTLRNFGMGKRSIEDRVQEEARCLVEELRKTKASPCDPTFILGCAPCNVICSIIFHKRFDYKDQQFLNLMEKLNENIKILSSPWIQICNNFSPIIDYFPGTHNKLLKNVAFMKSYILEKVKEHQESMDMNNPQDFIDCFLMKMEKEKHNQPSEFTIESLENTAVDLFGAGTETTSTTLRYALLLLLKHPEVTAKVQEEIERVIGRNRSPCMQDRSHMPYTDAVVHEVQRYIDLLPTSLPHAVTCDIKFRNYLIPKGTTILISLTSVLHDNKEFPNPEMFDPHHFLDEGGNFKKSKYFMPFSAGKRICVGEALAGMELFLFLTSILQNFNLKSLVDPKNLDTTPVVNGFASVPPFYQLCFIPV

CYP2C19 = CYP2C19 (Homo sapiens, UniProt P33261)
CYP2C19, sequence (P33261 whole entry): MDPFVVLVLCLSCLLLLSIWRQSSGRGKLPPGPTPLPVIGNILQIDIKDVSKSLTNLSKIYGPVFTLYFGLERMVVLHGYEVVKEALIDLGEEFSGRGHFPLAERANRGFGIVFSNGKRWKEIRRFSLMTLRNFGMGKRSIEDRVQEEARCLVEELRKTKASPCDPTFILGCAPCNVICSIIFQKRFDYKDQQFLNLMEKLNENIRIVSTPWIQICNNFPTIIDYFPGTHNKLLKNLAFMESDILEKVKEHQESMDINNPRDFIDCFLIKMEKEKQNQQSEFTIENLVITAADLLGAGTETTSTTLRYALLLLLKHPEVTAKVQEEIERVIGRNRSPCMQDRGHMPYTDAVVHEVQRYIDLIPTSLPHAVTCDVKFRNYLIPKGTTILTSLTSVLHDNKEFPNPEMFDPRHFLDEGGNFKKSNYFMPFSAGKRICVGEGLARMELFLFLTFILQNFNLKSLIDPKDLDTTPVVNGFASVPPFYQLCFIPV

Measured: IC50

CYP2D6, sequence (P10635 whole entry): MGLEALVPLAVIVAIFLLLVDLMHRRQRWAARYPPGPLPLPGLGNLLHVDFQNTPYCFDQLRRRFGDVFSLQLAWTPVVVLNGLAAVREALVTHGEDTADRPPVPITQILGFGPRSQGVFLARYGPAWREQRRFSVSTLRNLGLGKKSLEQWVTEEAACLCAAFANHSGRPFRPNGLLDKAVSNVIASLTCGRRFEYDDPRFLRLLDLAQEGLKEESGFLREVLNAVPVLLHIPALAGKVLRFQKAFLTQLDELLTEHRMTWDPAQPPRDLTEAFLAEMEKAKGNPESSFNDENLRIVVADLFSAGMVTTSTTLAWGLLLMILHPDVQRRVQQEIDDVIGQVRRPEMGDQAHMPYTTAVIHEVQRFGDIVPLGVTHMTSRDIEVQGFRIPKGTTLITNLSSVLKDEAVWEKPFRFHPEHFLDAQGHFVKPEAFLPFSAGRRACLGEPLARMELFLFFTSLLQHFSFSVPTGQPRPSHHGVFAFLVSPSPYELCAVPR

CNC(=O)CCC(=NOCC(=O)O)c1nc2ccccc2n([C@H]2C[C@H]3CCC[C@@H](C2)N3C2CC3CCCC(C3)C2)c1=O (stereo partly drawn) [Compound 42, 2-(((1-(4-((1R,1′R,3r,3′R,5S,5′S)-[3,9′-bi(9′-azabicyclo[3.3.1]nonan)]-3′-yl)-3-oxo-3,4-dihydroquinoxalin-2-yl)-4-(methylamino)-4-oxobutylidene)amino)oxy)acetic acid]
> 20 µM: all assays above

CC(C)(O/N=C(\C(=O)O)c1nc2ccccc2n([C@H]2C[C@H]3CC[C@@H](C2)N3C2CC3CCCCC(C3)C2)c1=O)C(N)=O (stereo partly drawn) [Compound 61]
> 20 µM: all assays above

CCO/N=C(\CCC(=O)O)c1nc2ccccc2n([C@H]2C[C@H]3CCC[C@@H](C2)N3C2CC3CCCC(C3)C2)c1=O (stereo partly drawn) [Compound 11, 4-[4-((1R,3R,7S)-9-bicyclo[3.3.1]non-3-yl-9-aza-bicyclo[3.3.1]non-3-yl)-3-oxo-3,4-dihydro-quinoxalin-2-yl]-4-ethoxyimino-butyric acid]
> 20 µM: all assays above

CNC(=O)CCC(=NOCC(=O)O)c1nc2ccccc2n([C@H]2C[C@H]3CCC[C@@H](C2)N3C2CC3CCCCC(C3)C2)c1=O (stereo partly drawn) [Compound 58]
> 20 µM: all assays above

CC(C)(ON=C(C(N)=O)c1nc2ccccc2n([C@H]2C[C@H]3CCC[C@@H](C2)N3C2CC3CCCC(C3)C2)c1=O)C(=O)O (stereo partly drawn) [Compound 57]
> 20 µM: all assays above

CC(C)ON=C(C(=O)O)c1nc2ccccc2n([C@H]2C[C@H]3CCC[C@@H](C2)N3C2CC3CCCC(C3)C2)c1=O (stereo partly drawn) [Compound 31]
> 20 µM: all assays above

NC(=O)CO/N=C(\C(=O)O)c1nc2ccccc2n([C@H]2C[C@H]3CC[C@@H](C2)N3C2CC3CCCCC(C3)C2)c1=O (stereo partly drawn) [Compound 60]
> 20 µM: all assays above

O=C(O)C(=NOCCO)c1nc2ccccc2n([C@H]2C[C@H]3CCC[C@@H](C2)N3C2CC3CCCCC(C3)C2)c1=O (stereo partly drawn) [Compound 15]
> 20 µM: all assays above

NC(=O)CO/N=C(\C(=O)O)c1nc2ccccc2n([C@H]2C[C@H]3CCC[C@@H](C2)N3C2CC3CCCCC(C3)C2)c1=O (stereo partly drawn) [Compound 45, (Z)-2-(2-amino-2-oxoethoxyimino)-2-(4-((1R,3R)-9-(bicyclo[4.3.1]decan-8-yl)-9-azabicyclo[3.3.1]nonan-3-yl)-3-oxo-3,4-dihydroquinoxalin-2-yl)acetic acid]
> 20 µM: all assays above

O=C(O)CCC(=NOCCO)c1nc2ccccc2n([C@H]2C[C@H]3CCC[C@@H](C2)N3C2CC3CCCC(C3)C2)c1=O (stereo partly drawn) [Compound 3, 4-[4-((1R,3R)—(S)-9-Bicyclo[3.3.1]non-3-yl-9-aza-bicyclo[3.3.1]non-3-yl)-3-oxo-3,4-dihydro-quinoxalin-2-yl]-4-(2-hydroxy-ethoxyimino)-butyric acid]
> 20 µM: all assays above

O=C(O)CCC(=NO)c1nc2ccccc2n([C@H]2C[C@H]3CCC[C@@H](C2)N3C2CC3CCCC(C3)C2)c1=O (stereo partly drawn) [Compound 7, 4-[4-((1R,3R)—(S)-9-bicyclo[3.3.1]non-3-yl-9-aza-bicyclo[3.3.1]non-3-yl)-3-oxo-3,4-dihydro-quinoxalin-2-yl]-4-hydroxyimino-butyric acid]
> 20 µM: all assays above

CNC(=O)/C(=N\OCC(=O)O)c1nc2ccccc2n([C@H]2C[C@H]3CCC[C@@H](C2)N3C2CC3CCCC(C3)C2)c1=O (stereo partly drawn) [Compound 43]
> 20 µM: all assays above

O=C(O)C(=NOCCO)c1nc2ccccc2n([C@H]2C[C@H]3CC[C@@H](C2)N3C2CC3CCCCC(C3)C2)c1=O (stereo partly drawn) [Compound 19]
> 20 µM: all assays above

NC(=O)C(=NOCC(=O)O)c1nc2ccccc2n([C@H]2C[C@H]3CCC[C@@H](C2)N3C2CC3CCCCC(C3)C2)c1=O (stereo partly drawn) [Compound 55]
> 20 µM: all assays above

CN(C)C(=O)C(=NOCC(=O)O)c1nc2ccccc2n([C@H]2C[C@H]3CCC[C@@H](C2)N3C2CC3CCCC(C3)C2)c1=O (stereo partly drawn) [Compound 51]
> 20 µM: all assays above

CC(C)ON=C(C(=O)O)c1nc2ccccc2n([C@H]2C[C@H]3CC[C@@H](C2)N3C2CC3CCCCC(C3)C2)c1=O (stereo partly drawn) [Compound 37, [4-((1S,3R,5R)-(1R,6S,8S)-8-bicyclo[4.3.1]dec-8-yl-8-aza-bicyclo[3.2.1]oct-3-yl)-3-oxo-3,4-dihydro-quinoxalin-2-yl]-isopropoxyimino-acetic acid]
> 20 µM: all assays above

NC(=O)CO/N=C(\C(N)=O)c1nc2ccccc2n([C@H]2C[C@H]3CCC[C@@H](C2)N3C2CC3CCCCC(C3)C2)c1=O (stereo partly drawn) [Compound 66]
> 20 µM: all assays above

NC(=O)CO/N=C(\C(=O)O)c1nc2ccccc2n([C@H]2C[C@H]3CCC[C@@H](C2)N3C2CC3CCCC(C3)C2)c1=O (stereo partly drawn) [Compound 38, (Z)-2-(2-amino-2-oxoethoxyimino)-2-(4-((1R,3R)-9-(bicyclo[3.3.1]nonan-3-yl)-9-azabicyclo[3.3.1]nonan-3-yl)-3-oxo-3,4-dihydroquinoxalin-2-yl)acetic acid]
> 20 µM: all assays above

N#CC(=NOCC(=O)O)c1nc2ccccc2n([C@H]2C[C@H]3CCC[C@@H](C2)N3C2CC3CCCC(C3)C2)c1=O (stereo partly drawn) [Compound 65, 2-((((4-((1R,1′R,3r,3′R,5S,5′S)-[3,9′-bi(9′-azabicyclo[3.3.1]nonan)]-3′-yl)-3-oxo-3,4-dihydroquinoxalin-2-yl)(cyano)methylene)amino)oxy)acetic acid]
> 20 µM: all assays above

NC(=O)CO/N=C(\CCC(=O)O)c1nc2ccccc2n([C@H]2C[C@H]3CCC[C@@H](C2)N3C2CC3CCCC(C3)C2)c1=O (stereo partly drawn) [Compound 39]
> 20 µM: all assays above

CON=C(C(=O)O)c1nc2ccccc2n([C@H]2C[C@H]3CCC[C@@H](C2)N3C2CC3CCCCC(C3)C2)c1=O (stereo partly drawn) [Compound 17]
> 20 µM: all assays above

CC(C)O/N=C(\C(=O)O)c1nc2ccccc2n([C@H]2C[C@H]3CCC[C@@H](C2)N3C2CC3CCCCC(C3)C2)c1=O (stereo partly drawn) [Compound 33, 2-(4-((1R,3R)-9-(bicyclo[4.3.1]decan-8-yl)-9-azabicyclo[3.3.1]nonan-3-yl)-3-oxo-3,4-dihydroquinoxalin-2-yl)-2-(isopropoxyimino)acetic acid]
> 20 µM: all assays above

CNC(=O)CON=C(C(=O)O)c1nc2ccccc2n([C@H]2C[C@H]3CCC[C@@H](C2)N3C2CC3CCCC(C3)C2)c1=O (stereo partly drawn) [Compound 64]
> 20 µM: all assays above

COCCO/N=C(\C(=O)O)c1nc2ccccc2n([C@H]2C[C@H]3CCC[C@@H](C2)N3C2CC3CCCC(C3)C2)c1=O (stereo partly drawn) [Compound 49]
> 20 µM: all assays above

NC(=O)CCC(=NOCC(=O)O)c1nc2ccccc2n([C@H]2C[C@H]3CCC[C@@H](C2)N3C2CC3CCCC(C3)C2)c1=O (stereo partly drawn) [Compound 44]
> 20 µM: all assays above

O=C(O)/C(=N\OCCO)c1nc2ccccc2n([C@H]2C[C@H]3CCC[C@@H](C2)N3C2CC3CCCC(C3)C2)c1=O (stereo partly drawn) [Compound 4]
> 20 µM: all assays above

CC(=NOCC(=O)O)c1nc2ccccc2n(C2CC3CCC(C2)N3C2CC3CCCCC(C3)C2)c1=O (stereo not drawn) [Compound 22]
> 20 µM: all assays above
